{
  "source": "patent US11884932B2",
  "about": "“In vitro production of medial ganglionic eminence precursor cells” (The Regents of the University of California, priority 2013, dated 2024)",
  "molecules": {"B1": {"name": "DKK1: Dickkopf homolog 1, recombinant protein WNT inhibitor (protein, UniProt O94907 32-266, looked up)", "Dickkopf-related protein 1": "TLNSVLNSNAIKNLPPPLGGAAGHPGSAVSAAPGILYPGGNKYQTIDNYQPYPCAEDEECGTDEYCASPTRGGDAGVQICLACRKRRKRCMRHAMCCPGNYCKNGICVSSDQNHFRGEIEETITESFGNDHSTLDGYSRRTTLSSKMYHTKGQEGSVCLRSSDCASGLCCARHFWSKICKPVLKEGQVCTKHRRKGSHGLEIFQRCYCGEGLSCRIQKDHHQASNSSRLHTCQRH"}},
  "key": {"GABAA receptor": {"test_system": "GABAA receptor", "assay": "Whole-cell patch recording of post-synaptic currents in cultured hESC-derived neurons and co-cultured human fetal cortical neurons", "assay_type": "cell-based", "from_the_text": "The patch electrodes were made from borosilicate glass capillaries (B-120-69-15, Sutter Instruments) with a resistance in the range of 5-7 MΩ. The pipettes were tip-filled with internal solution containing (in mM): 125 K-gluconate, 15 KCl, 10 HEPES, 4 MgCl2, 4 Na2ATP, 0.3 Na3GTP, 10 Tris-phosphocreatine, 0.2 EGTA.\n(§1) For cultured neurons, the bath was constantly perfused with fresh recording medium containing (in mM): 145 NaCl, 3 KCl, 3 CaCl2, 2 MgCl2, 10 HEPES, 8 glucose. Transverse slices (300 μm) were cut on a […] (Leica VT1200S) and maintained in an incubation chamber with aCST containing (in mM): 110 Choline Cl, 2.5 KCl, 0.5 CaCl2, 7 MgCl2, 1.3 NaH2PO4, 25 NaHCO3, 10 glucose. Slice recording medium contained (in mM): 125 NaCl, 2.5 KCl, 2 CaCl2, 1.3 MgCl2, 1.3 NaH2PO4, 25 NaHCO3, 10 glucose. Recordings were made with an Axon 700B patch-clamp amplifier and 1320A interface (Axon Instruments). Signals were filtered at 2 kHz using amplifier circuitry, sampled at 10 kHz, and analyzed using Clampex 10.2 (Axon Instruments).\nPhotostimulation was delivered by mercury lamp (75 mW) with a GFP excitation bandpass filter and light pulses were generated by Maste-8 (A.M.P.I.) through a high-speed shutter (UNIBLITZ), the power density of the blue light (Boyden, E. S., et al. (2005). Nat Neurosci 8, 1263-1268) (Nagel, G., et al. (2003). Proc Natl Acad Sci USA 100, 13940-13945) was 8-12 mW·mm−2, measured with a power meter (Coherent Instruments).\nThe percentage of neurons receiving sPSCs increased from 33.3% at eight WPD (n=12) to 82.1% at 12 WPD (n=28, FIG. 6C). To confirm that GABAergic neurons were able to send outputs to neighboring neurons, we transfected half of the neurons with Synapsin promoter—Channelrhodopsin2-EYFP (ChR2-EYFP) by lentiviral infection. […] The reversal potential of light-evoked PSCs was −32.7 mV (FIGS. 6F and 6G), close to the expected Cl-reversal potential under our recording conditions [−37.3 mV=−53.4 mV (by Nernst equation)±16.1 mV (junction potential)]. […]"}, "[1]": {"test_system": "spontaneous PSCs recorded from hESC-derived neurons post-injection", "assay": "Whole-cell recording of spontaneous PSCs of transplanted hESC-derived neurons in mouse brain slices", "assay_type": "cell-based, human", "settings": "mouse brain slices 7 MPI", "protocol": "as §1\nTo examine whether hESC-derived MGE-like cells could develop into functional interneurons that synaptically integrate in vivo, we performed whole-cell recordings of RFP+ human cells in mouse brain slices seven MPI. […]\nFIG. 7. hESC-derived MGE-like Interneuron Precursor Cell Maturation and Functional Integration in the Mouse Brain. • (A) Day 35 ML cultures FACS-sorted for NKX2.1-GFP and PSA-NCAM, and injected into newborn mouse cortex. […] Scale Bar: 50 μm. • (D-E) Quantification of histology at 2 (black), 4 (orange), and 7 (blue) MPI, and of SST, CALB, and CALR (E). […] Inset: RFP fluorescence of filled neuron 7 MPI. […]"}, "hESC-derived cultures [2]": {"test_system": "hESC-derived cultures", "assay": "Cells expressing telencephalic FOXG1 in hESC-derived cultures", "assay_type": "cell-based, human", "protocol": "Cultured cells were fixed in 4% paraformaldehyde for 10-20 min. Mouse brains were fixed overnight-4° C. after trans-cardial perfusion and sectioned (50 μm) by vibratome or sliding microtome. EBs and human tissue were sectioned (25 μm) by cryostat. Cells and sections were stained: 5-10 min antigen retrieval with boiling 0.01M citrate buffer pH=6, 1 hr block with 5% serum and 0.1% triton X100 in PBS, overnight-4° C. primary antibody in block buffer (except triton-free buffer used for GABA antibody), wash 3× in PBS+tritonX100, 2 hr secondary antibody (Invitrogen), wash 4× in PBS+tritoriX100.\n(§2) SHH pathway activation was required for NKX2,1-GFP+ cell derivation. In this study, we used 1-2 μM of purmorphamine or 500 ng/mL of SHH. […] Addition of an FGF inhibitor (PD173074) from the onset of differentiation (d0-25) caused a decrease in cells expressing FOXG1 (55%), but addition of the same inhibitor on day 14 (d14-25) had no effect on FOXG1 levels (not shown). Therefore, similar to fetal forebrain development, early inhibition of WNT and activation of FGF signaling pathways, along with SHH activation, play roles in patterning the ventral-telencephalic-like identity of hESC-derived cultures."}, "HES-3 NKX2.1GFP/w hESCs": {"test_system": "HES-3 NKX2.1GFP/w hESCs", "assay": "NKX2.1-GFP+ differentiation efficiency of hESCs by FACS / flow cytometry", "assay_type": "cell-based, human", "settings": "for NKX2.1-GFP+ MGE precursor-like cell efficiency: KSR/B27 media", "protocol": "HES-3 hESCs were maintained on irradiated mouse embryonic fibroblasts (Millipore) in knockout DMEM with 20% knockout serum replacement, 1% nonessential amino acids (NEAA), 1% pen-strep-glutamine, 0.0008% 2-mercaptoethanol, and 10 ng/mL FGF-basic (Invitrogen), Differentiation was initiated by CollagenaseIV/Dispase (1 mg/mL each; Invitrogen) preferential selection for hESC colonies. Colonies were trypsinized to single cells, and, as described (Eiraku, M., et al. (2008). Cell Stem Cell 3, 519-532), ˜10,000 cells/well were plated into low-attachment round-bottom 96-well plates (Corning or NOF) to form one sEB/well in optimized B27+5F; differentiation medium #1, consisting of Neurobasal-A, 2% B27-vitamin A (Invitrogen), and the same supplements in hESC media but without FGF. Also, Y27632 (10 μM), SB3431542 (10 μM), Purmorphamine (1-2 μM) (Stemgent), BMPRIA-Fc (1.5 μg/mL), and DIKK1 (1 μg/mL) (Invitrogen) were added.\nOn ˜d7, Y27632 was removed, and sEBs were plated adherent en-bloc onto matrigel (BD Biosciences) coated plates in medium #1. On ˜d14, factors were removed from medium #1 except for Purmorphamine. On ˜d25, aEBs were trypsinized and replated as dissociated monolayer onto matrigel or polyornithine/laminin coated plates. DAPT (10 μM) (Tocris) was added from ˜d27-d30. After FACS sorting on day ˜35, GFP+ cells could be replated (10-25,000 cells/cm2) onto cortical glial cells in medium #1. Glial cells were prepared from newborn mouse cortex, passaged at least 3× with serum to remove mouse neurons, and pre-treated at confluency with Ara-C (5 μM) (Sigma). Every 3-4 days, half of media was replaced with differentiation medium #2: Neurobasal-A, 2% B27+vitamin A, (Invitrogen) and same supplements in medium #1, without factors, except NEAA and Purmorphamine were removed, and BDNF (25 ng/mL) was added (R&D Systems). Media was replaced every 3-4 days.\nFACS analysis and sorting was performed on FACS Aria II (BD Biosciences). Cells were gated for live cell DAN exclusion, small scatter size, single cells, NKX2.1-GFP signal, and PSA-NCAM-APC or -PE (Miltenyi Biotech) signal intensity. GFP-negative cells and isotype antibody (Santa Cruz) controls were used. Data was analyzed with Flowjo (Treestar) software. For live cell imaging, differentiation was similar to above, but 5,000 cells/well were plated into Aggrewell-800 plates (Stem Cell Technologies), and sEBs were plated en-bloc on day 4-7. Imaging was performed by time-lapse confocal microscopy with temperature (37° C.) and gas (5% O2, 5% CO2, 90% N2) controls (Leica SP5).\nFIG. 24, Bottom Panel: Flow cytometry was used to determine the efficiency of generation of NKX2.1GFP+ MGE precursor cells using the small molecule inhibitors. The efficiency of generation of NKX2.1GFP+ MGE precursor cells was determined as what percent of cells of the cells analyzed were NKX2.1GFP+ MGE precursor cells."}, "hESC-derived cultures [3]": {"test_system": "hESC-derived cultures", "assay": "Viability of differentiating hESC cultures", "assay_type": "cell-based, human", "settings": "2-6 μM purmorphamine", "protocol": "as §2\nCost-effective cell production methods will be preferred over lengthy protocols and expensive recombinant protein-based reagents, and cryopreservation of cells will facilitate future work. Here, we used 3 small molecules (Y27632, SB431542, and purmorphamine) and 2 recombinant proteins (BMPRIA-Fc and DKK1). Several small molecule substitutes now exist for inhibition of BMP and WNT pathways. […] In addition, ˜25% of hESC-derived MGE-like cells were viable after cryopreservation and thawing, and thawed cells matured into neurons with functional properties as confirmed by electrophysiology."}},
  "data": [
    {"molecule": "C[N+]1(C)CCc2cc3c(cc2[C@H]1[C@@H]1OC(=O)c2c1ccc1c2OCO1)OCO3.[I-]", "note": "[BMI, bicuculline methiodide]", "values": [
      {"measurement": "block of spontaneous post-synaptic currents (sPSC)", "setting": "GABAA receptor; BMI 20 μM, hESC-derived neurons co-cultured with mouse glial cells, eight weeks post-differentiation", "result": "fully blocked"},
      {"measurement": "block of light-evoked PSCs", "setting": "GABAA receptor; ChR2-EYFP hESC-derived neurons, blue light, neighboring neurons", "result": "reversible blockade"},
      {"measurement": "block of light-evoked GABAergic-specific PSCs in primary human fetal cortical neurons", "setting": "GABAA receptor; co-culture seven weeks with ChR2 hESC-derived neurons", "result": "completely blocked"},
      {"measurement": "block of spontaneous PSCs with slow decay-time", "setting": "[1]", "result": "blocked"}
    ]},
    {"molecule": "N#Cc1cc2nc(O)c(O)nc2cc1[N+](=O)[O-]", "note": "[CNQX, 6-Cyano-2,3-dihydroxy-7-nitro-quinoxaline]", "values": [
      {"measurement": "block of remaining spontaneous PSCs with fast decay-time", "setting": "[1]; applied after BMI", "result": "blocked"}
    ]},
    {"molecule": "CCN(CC)CCCCNc1ncc2cc(-c3cc(OC)cc(OC)c3)c(NC(=O)NC(C)(C)C)nc2n1", "note": "[PD173074]", "values": [
      {"measurement": "cells expressing FOXG1", "setting": "hESC-derived cultures [2]; FGF inhibitor added from onset of differentiation (d0-25)", "result": 55, "unit": "%"},
      {"measurement": "effect on FOXG1 levels", "setting": "hESC-derived cultures [2]; FGF inhibitor added on day 14 (d14-25)", "result": "no effect"}
    ]},
    {"molecule": "c1ccc2c(Oc3nc(Nc4ccc(N5CCOCC5)cc4)c4ncn(C5CCCCC5)c4n3)cccc2c1", "note": "[purmorphamine]", "values": [
      {"measurement": "GFP+ differentiation efficiency in EB cultures", "setting": "HES-3 NKX2.1GFP/w hESCs; 2-6 μM purmorphamine versus 1-2 μM used", "result": "slightly increased"},
      {"measurement": "NKX2.1-GFP+ MGE precursor-like cell efficiency", "setting": "HES-3 NKX2.1GFP/w hESCs; 25-day hybrid method, purmorphamine day 10-25, SB431542, BMPRIA-Fc and DKK1 throughout, FACS", "result": 12, "unit": "%"},
      {"measurement": "NKX2.1-GFP+ MGE precursor cells", "setting": "HES-3 NKX2.1GFP/w hESCs; B27 media throughout 25-day protocol, early addition of five factors (Y27632, SB431542, BMPRIA-Fc, DKK1, purmorphamine)", "result": 70, "unit": "%"},
      {"measurement": "NKX2.1-GFP+ differentiation efficiency", "setting": "HES-3 NKX2.1GFP/w hESCs; B27 media, early purmorphamine, inhibitors removed after two weeks (d14), protocol extended to day 35, FACS", "result": "up to 90%"},
      {"measurement": "NKX2.1-GFP+ MGE precursor-like cell efficiency", "setting": "HES-3 NKX2.1GFP/w hESCs; as hybrid method but purmorphamine from day 0-25", "result": 1.9, "unit": "%"},
      {"measurement": "viability of later-stage monolayer cultures", "setting": "hESC-derived cultures [3]", "result": "decreased"}
    ]},
    {"molecule": "B1", "values": [
      {"measurement": "number of cells expressing telencephalic FOXG1", "setting": "hESC-derived cultures [2]; DKK1 WNT inhibitor absent", "result": 45, "unit": "%"},
      {"measurement": "number of cells expressing telencephalic FOXG1", "setting": "hESC-derived cultures [2]; with DKK1 WNT inhibitor", "result": 70, "unit": "%"},
      {"measurement": "GFP+ cell differentiation efficiency", "setting": "HES-3 NKX2.1GFP/w hESCs; DKK1 WNT inhibitor absent versus present", "result": "similar"}
    ]}
  ]
}
